This passage reports IC50 results from publication PMC8878140, “Inhibitory Effects of Nitrogenous Metabolites from a Marine-Derived Streptomyces bacillaris on Isocitrate Lyase of Candida albicans” (Marine Drugs, 2022).

Assay [1] has as its target T1, isocitrate lyase (ICL) (Candida albicans, UniProt Q9P8Q7).
T1 construct: gene ICL1; purified recombinant ICL
Put plainly: biochemical.

Assay [2] deals with T1, isocitrate lyase (ICL). Description: enzyme assay, absorbance at […] nm (phenylhydrazine); Lineweaver-Burk and Dixon plots. The class given is biochemical.

T1 sequence (Q9P8Q7 whole entry): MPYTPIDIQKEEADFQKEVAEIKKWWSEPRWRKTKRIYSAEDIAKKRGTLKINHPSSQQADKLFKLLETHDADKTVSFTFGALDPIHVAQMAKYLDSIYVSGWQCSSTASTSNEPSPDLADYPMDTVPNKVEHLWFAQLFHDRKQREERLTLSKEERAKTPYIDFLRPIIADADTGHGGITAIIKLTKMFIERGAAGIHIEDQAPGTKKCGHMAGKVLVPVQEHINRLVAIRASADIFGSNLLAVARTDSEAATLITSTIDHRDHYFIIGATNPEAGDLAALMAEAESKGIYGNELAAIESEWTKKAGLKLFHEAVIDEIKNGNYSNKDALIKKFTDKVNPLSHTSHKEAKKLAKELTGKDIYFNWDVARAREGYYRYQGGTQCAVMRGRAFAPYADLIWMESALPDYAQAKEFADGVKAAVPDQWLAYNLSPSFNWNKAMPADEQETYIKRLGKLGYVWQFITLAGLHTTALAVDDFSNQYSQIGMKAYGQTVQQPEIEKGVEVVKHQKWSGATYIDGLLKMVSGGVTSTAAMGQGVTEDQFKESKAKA

Consider `O=C(O)CC[N+](=O)[O-]` [3-nitropropionate, reference compound], for which, at isocitrate lyase (ICL) [1], half-maximal inhibition (IC50) was put at 21.5 µM.

In turn, `CS[C@]12CC[C@H](O)[C@H]1C(=O)NC2=O` [compound 1, bacillimide] came in with an IC50 against isocitrate lyase (ICL) [2] of 44.2 µM.

In the case of `C[S+]([O-])CCNC(=O)c1ccc[nH]1` (stereo not drawn) [compound 2, N-(2-(methylsulfinyl)ethyl)-1H-pyrrole-2-carboxamide], the IC50 at isocitrate lyase (ICL) [1] (read-out: ICL IC50) is 190 µM.

Usually IC50 stands for the concentration needed to halve the response being measured.
